Assay results from ChEMBL document CHEMBL6087484, “Discovery of Novel Small-Molecule Inhibitors Disrupting the MTDH-SND1 Protein-Protein Interaction” (J Med Chem, 2025).

Each compound was assayed on MCF7 (assay: Anti-proliferative activity against human MCF7 cells assessed as cell viability measured after 72 hrs by CCK8 assay). Conditions: MCF7, 72 h.

IC50 | SMILES
> 10 µM | O=S(=O)(Nc1cccc2cc(Nc3ccccc3)cnc12)c1cccc2cccnc12
4.38 µM | O=S(=O)(Nc1cccc2cc(Br)cnc12)c1cccc2cccnc12
2.11 µM | O=S(=O)(Nc1cc(Br)cc2cccnc12)c1cccc2cccnc12
> 10 µM | Cc1ccc2cccc(NS(=O)(=O)c3cccc4cccnc34)c2n1
6.42 µM | CC(C)N1CCN(c2ccc(NS(=O)(=O)c3cccc4cccnc34)c3ncccc23)CC1
> 10 µM | COc1ccc(Cl)cc1S(=O)(=O)Nc1cccn2ncnc12
2.35 µM | COc1cc(NS(=O)(=O)c2cccc3cccnc23)c2ncccc2c1
2.19 µM | O=S(=O)(Nc1ccc(Br)c2cccnc12)c1cccc2cccnc12
1.17 µM | O=S(=O)(Nc1cc(Cl)cc2cccnc12)c1cccc2cccnc12
0.901 µM | O=S(=O)(Nc1cccc2cccnc12)c1cccc2cccnc12
2.89 µM | O=S(=O)(Nc1ccc(Cl)c2cccnc12)c1cccc2cccnc12
